Experimental findings from patent US20070264287A1, “Methods for Increasing the Immune Response in an Animal” (priority 2004, published 2007) are described below.

This experiment concerns NK cell activity. The experiment can be described thus: NK cell activity in old dogs fed a diet fortified with lipoic acid. It counts as in vivo. The settings on record: old beagles (Group 3, average age 11.3 years), dry food fortified with 150 ppm lipoic acid on a dry matter basis, six weeks, versus baseline and young and old controls; FIG. 1. The source says:
The dogs are beagles and Group 1 consists of 10 beagles with the average age of 5.1 years old, Group 2 consists of 10 beagles with an average age of 11.8 years old, and Group 3 consists of 10 beagles with an average age of 11.3 years old. The dogs from all three groups are fed the controlled food for a two week period prior to intervention. […] During the two week period on the control, samples are taken from all dogs and chemical and biological analysis is completed on the samples to establish base line data. Then three groups of dogs eat their respective diets for a six week period of time and after this time period, samples are taken from all of the dogs in the study and chemical and biological analysis is completed on the samples. Baseline data is compared to the data taken at the end of the six week study.

For `O=C(O)CCCC[C@@H]1CCSS1` (racemic) [lipoic acid], the NK cell activity entry is listed as “increased NK cell activity”.
